Read-outs that look alike come from different tables or passages of the source.
Tests used:
[1] = test system: HCT116p53KO, DLD-1 and SW480 cell lines; test: cells; details: Homo sapiens, 72 h, read-out: cell mortality
Description: The tumor cell line initially used was HCT116p53KO (which differs from the wild type (wt) HCT116 due to the lack of gene p53), related to the colon tumor, while further detailed studies of specific genes were carried out on other drug-resistant tumor cell lines of the colon, such as DLD-1 and SW480, as well as on tumor cell lines of the lung and ovary. In particular, all cell lines that were the object of the analysis, were related to tumors of epithelial type.

HCT116p53KO cells [2] = test: Calcein cell viability assay, ibrutinib with or without 5FU; type: cell-based, human; details: 72 hr; for percentage of live HCT116p53KO cells (100% = living cells at day 0): without ibrutinib 177.5%
Description: (§1) 100% represent the percentage of living cells at day 0, before starting the treatment.
(§2) Viability was evaluated after 72 hr of incubation by calcein assay. 100% represent the percentage of living cells at day 0, before starting treatment with the drugs. […] At the end of the treatment, cell viability was evaluated by calcein assay. 100% represent the percentage of living cells at day 0, before starting treatment with the drugs.

HCT116 cells [3] = details: 200 μM 5FU, 72 hr
Description: as §1, §2

[4] = test system: HCT116 overexpressing p65BTK (HCT116-p65BTK); details: 200 μM 5FU, 72 hr
Description: as §2

[5] = test system: tumor cells of the colon-rectum in advanced phase; details: therapy based on 5FU; cited from earlier work
HCT116 cells [6] = details: 72 hr
HCT116p53KO cells [7] = details: 200 μM 5FU, 20 μM ibrutinib, singly or combined, 72 hr
wt HCT116 cells = test: cells; details: Homo sapiens, HCT-116, 72 h, read-out: cell mortality
HCT116p53KO xenografts = test: Subcutaneous xenograft, drug-resistant tumors; details: for average volume of the tumor masses: after 28 days, 5FU 60 mg/kg i.p. twice a week, alone or combined, control ≈955
HCT116 xenografts = test: Subcutaneous xenograft, drug-sensitive tumors; details: for increase of the tumor doubling time / reduction in the tumor volume: 5FU versus untreated or ibrutinib-treated group p<0.05; for average volume of the tumor masses: after 28 days, alone or combined, control ≈435
SW480 colon cancer cells = details: 72 hr
Description: FIG. 26a: SW480; FIG. 26b: HT-29.
as §2
100% represent the percentage of living cells at day 0, before starting treatment with the drugs.

HT-29 colon cancer cells = details: with 200 μM 5FU, 72 hr
Description: Cells were treated for 72 hrs in absence of any drug or in presence of FU 200 μM; 1 μM AVL-292; 1 μM AVL-292+5FU 200 μM; 5 μM AVL-292; 5 μM AVL-292+5FU 200 μM; 10 μM AVL-292; […]; viability was evaluated at the end of the incubation using the calcein assay. FIG. 26a: SW480; FIG. 26b: HT-29.
In the experiments shown in FIG. 26 SW480 and HT-29 colon carcinoma cell lines were grown in vitro for 72 hr in the presence of different concentrations of AVL-292, a small molecule inhibitor of BTK, (Celgene Corporation, Summit, N.J.) (from 0 to 20 μM) and of 5FU (200 μM)+AVL-292 (from 0 to 20 μM); cell viability was evaluated at the end of the incubation using the calcein assay. 100% represent the percentage of living cells at day 0, before starting treatment with the drugs.

HCT116p53KO cells [8] = test: Reversion of 5FU resistance by functional blocking of BTK (cell death); type: cell-based, human; details: 200 μM 5FU, 72 hr; agents compared with each other
Source text: FIG. 8 is a graph illustrating the reversion of the resistance to a chemotherapeutic drug of tumor cell line HCT116p53KO carried out by means of functional blocking of the gene BTK obtained with different methods.
In FIG. 8, the results of the comparison test are reported in a graph of the functional blocking of the BTK gene by means of plasmids (e.g., encoding p68BTK), siRNA or LFM-A13 in samples of HCT116p53KO cells treated with 5FU. […] In detail, FIG. 8 compares the percentages of cell deaths in the presence of 200 μM 5FU (72 hr treatment) upon wt HCT116 cells and HCT116p53KO drug resistant cells with or without (symbol “empty” and “−”) specific depletions of BTK following transient siRNA transfection (symbol “BTKi”), stable retroviral-mediated RNA interference (symbol “shBTK”), and using LFMA13, an inhibitor compound of BTK.

A549 cells (lung tumor) = test: Cell death with or without BTK inhibition by LFM-A13; type: cell-based, human; details: 200 μM 5FU, 50 μM OxPt, or the combination of the two
Source text: (§3) The diminution of the resistance to chemotherapeutic drugs following the functional blocking of the gene BTK by means of LFM-A13 was further confirmed by tests conducted in vitro on epithelial tumor cell lines different from those of the colon. In FIG. 11 levels of BTK have been investigated, by means of Western blot, in several different epithelial carcinoma cell lines showing that the kinase is expressed in most of them. In particular, in FIGS. 12a and 12b, graphs were reported of the reversion tests obtained on SKOV cell lines (related to an ovarian tumor) and A549 cell lines (related to a lung tumor).
(§4) In detail, FIG. 12a compares the percentages of cell deaths in the absence (symbol “NT” and “−”) and presence of 200 μM 5FU, 50 μM OxPt, and the combination of the two upon resistant ovarian (SKOV) cells with or without BTK inhibition through the usage of LMFA13. […] FIG. 12b compares the percentages of cell deaths in the absence (symbol “NT” and “−”) and presence of 200 μM 5FU, 50 μM OxPt, and the combination of the two upon resistant lung (A549) cells with or without BTK inhibition through the usage of LMFA13.

[9] = test system: SKOV cells (ovarian tumor); test: as above; type: cell-based, human; details: 200 μM 5FU, 50 μM OxPt, or the combination of the two
Source text: as §3, §4

HCT116p53KO cells [10] = test: Caspase 3/7 activation assay; type: cell-based, human; details: 5FU-treated cells in the presence of LFM-A13; luminometric assay
Source text: FIG. 14 is a graph illustrating the results of […] caspase activation assays after 72 hrs and 96 hrs in HCT116 and HCT116p53KO colon carcinoma cells treated with 5FU, BTK inhibition, or the combination of the two.
The results have shown that BTK levels determine the sensitivity of tumor cells to 5FU and that BTK inhibition reverses drug-resistance. […] The same finding is also supported by the graph reported in FIG. 14, evaluating the level of caspase 3/7 activation upon 5FU treatment in HCT116p53KO resistant cells in the presence or in the absence of BTK inhibitor LFM-A13. High levels of caspase 3/7 activation, measured by means of a luminometric assay as RLU/number of cells, are observed in 5FU-treated HCT116p53KO cells only when BTK is inhibited.

[11] = test system: 5FU-resistant, p53-null (HCT116p53KO, SW480 and HT-29) cell lines; test: Calcein cell viability assay, ibrutinib dose range; type: cell-based, human; details: highest concentration (range 0 to 30 μM), 72 hours
Source text: as §1

[12] = test system: HCT116p53KO, SW480, DLD-1 and HCT116 cell lines; details: up to 10 μM, 72 hours
HCT116p53KO cells [13] = test: Short-term viability under targeted therapy with or without ibrutinib (MTT); type: cell-based, human; details: 25 μg/ml bevacizumab, 10 μg/ml cetuximab or 75 μg/ml panitumumab alone, 72 hr
[14] = dasatinib 50 mpk oral gavage once a day 5 days a week
[15] = ibrutinib 25 mpk oral gavage once daily 5 days a week
[16] = 5FU 60 mg/kg ± dasatinib 50 mpk, p<0.05

O=c1[nH]cc(F)c(=O)[nH]1 [5FU, 5-fluorouracil]
mortality at 200 µM [1]: < 10% | effect on viability (HCT116p53KO cells [2]; 5FU 200 μM alone): little effect | response to the cytotoxic effect of 5FU (HCT116 cells [3]): sensitive | response to the cytotoxic effect of 5FU [4]: resistant | effective response (share of the cells) [5]: 10-15% | cell death (photographs) (HCT116 cells [6]; 10 μM 5FU, 10 μM ibrutinib, singularly or in combination): no cell death | cell death (photographs) (HCT116 cells [6]; 5FU 200 μM): massive cell death | cell death (photographs) (HCT116p53KO cells [7]): no cell death | mortality at 200 µM (wt HCT116 cells): > 95% | reduction of the tumor volume (significance) (HCT116p53KO xenografts; 5FU 60 mpk, ibrutinib 25 mpk, 5FU+Ibr25 Vs. Ctrl p=0.012, Vs. Ibr25 p=0.039): did not cause a significant reduction | average volume of the tumor masses (HCT116p53KO xenografts; [14]): ≈ 530 mm^3 | average volume of the tumor masses (HCT116p53KO xenografts; [15]): ≈ 530 mm^3 | increase of the tumor doubling time versus untreated (or dasatinib-treated) group (HCT116 xenografts; [16]): significant | reduction in the tumor volume versus untreated (or dasatinib-treated) group (HCT116 xenografts; [16]): significant | increase of the tumor doubling time (HCT116 xenografts; 5FU 60 mpk, ibrutinib 25 mpk): significant | reduction in the tumor volume (HCT116 xenografts; 5FU 60 mpk, ibrutinib 25 mpk): significant | increase of the tumor doubling time (HCT116 xenografts; 5FU 60 mpk, ibrutinib 50 mpk): significant | reduction in the tumor volume (HCT116 xenografts; 5FU 60 mpk, ibrutinib 50 mpk): significant | average volume of the tumor masses (HCT116 xenografts; 5FU 60 mg/kg, dasatinib 50 mpk): 226 mm^3 | average volume of the tumor masses (HCT116 xenografts; 5FU 60 mpk, ibrutinib 25 mpk): ≈ 226 mm^3 | average volume of the tumor masses (HCT116 xenografts; 5FU 60 mpk, ibrutinib 50 mpk): ≈ 226 mm^3

C=CC(=O)Nc1cccc(Nc2nc(Nc3ccc(OCCOC)cc3)ncc2F)c1 [AVL-292]
cell death (SW480 colon cancer cells; 5 μM combined with 200 μM 5FU): 66.8% | cell death (SW480 colon cancer cells; 10 μM alone): 19.9% | cell death (SW480 colon cancer cells; 20 μM alone): 65.3% | AVL-292 concentration from which sensitization to the cytotoxic effect of 5FU starts (HT-29 colon cancer cells): ≥ 20 µM

C/C(O)=C(\C#N)C(=O)Nc1cc(Br)ccc1Br [LFM-A13, (2Z)-2-cyan-N-(2,5-dibromophenyl)-3-hydroxy-2-butenamide]
level of reversion to the drug resistance, expressed as percentage fraction of dead cells (HCT116p53KO cells [8]): comparable | percentage of cell deaths with LFM-A13 compared to without (A549 cells (lung tumor)): high percentage of tumor cell death | percentage of cell deaths with LFM-A13 compared to without [9]: high percentage of tumor cell death | caspase 3/7 activation (HCT116p53KO cells [10]): High levels

Cc1nc(Nc2ncc(C(=O)Nc3c(C)cccc3Cl)s2)cc(N2CCN(CCO)CC2)n1 [dasatinib]
average volume of the tumor masses (HCT116p53KO xenografts; [14]): ≈ 355 mm^3 | average volume of the tumor masses (HCT116 xenografts; 5FU 60 mg/kg, dasatinib 50 mpk): ≈ 343 mm^3

C=CC(=O)N1CCC[C@@H](n2nc(-c3ccc(Oc4ccccc4)cc3)c3c(N)ncnc32)C1 [ibrutinib]
number of cells (100% = living cells at day 0) [11]: below 100% | percentage of live HCT116p53KO cells (100% = living cells at day 0) (HCT116p53KO cells [2]; 10 μM ibrutinib): 130.2% | percentage of live HCT116p53KO cells (100% = living cells at day 0) (HCT116p53KO cells [2]; 20 μM ibrutinib): 116.1% | average volume of the tumor masses (HCT116p53KO xenografts; [15]): ≈ 760 mm^3 | average volume of the tumor masses (HCT116 xenografts; 5FU 60 mpk, ibrutinib 25 mpk): ≈ 347 mm^3 | average volume of the tumor masses (HCT116 xenografts; 5FU 60 mpk, ibrutinib 50 mpk): ≈ 372 mm^3 | cytotoxicity [12]: not cytotoxic

bevacizumab: monoclonal antibody used in anti-cancer therapy for targeting VEGF
cell viability (HCT116p53KO cells [13]): does not affect

panitumumab: monoclonal antibody used in anti-cancer therapy for targeting EGFR
cell viability (HCT116p53KO cells [13]): does not affect

Reference: patent US9820987B2, “Modulator compounds of drug resistance in epithelial tumor cells” (BIONSIL S.R.L. in Liquidazione, priority 2007, dated 2017)
